Measurements from the supplement of paper PMC10883282.

Key:
Experiment in all cases: relative viability vs DMSO control (72 h) (fraction); higher = more viable cells
SK-LMS-1 = tested on: SK-LMS-1
Outline: (§1)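 Sarcoma cell lines were seeded in 384-well plates at densities set to reach 80–90% confluence. After 24 h, 2.5 µl of serially diluted compound was added (source plates 10 mM to 0.0002 mM), and plates were held 72 h at 37 °C, 5% CO2, with 0.1% DMSO vehicle and a 5 µM positive control. Relative viability came from ATPLite readings as percent growth, averaged over up to triplicate wells. Data were rescaled so full viability equals 1 and none equals 0.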

SW1353 = tested on: SW1353
Outline: as §1

SW684 = tested on: SW684
Outline: as §1

SW872 = tested on: SW872
Outline: as §1

SW982 = tested on: SW982
Outline: as §1

SYO-1 = tested on: SYO-1
Outline: as §1

CNC(=O)c1c(C)oc2cc(Oc3ncnc4cc(OC)c(OC)cc34)ccc12 [Fruquintinib]
relative viability
Details | SK-LMS-1 | SW684 | SW872 | SW982 | SW1353 | SYO-1
0.00017 µM | 1.11 | 1.15 | 1.09 | 1.03 | 1.051 | 1.01
0.00051 µM | 1.1 | 1.12 | 1.06 | 1.03 | 1.02 | 1.034
0.00152 µM | 1.106 | 1.16 | 1.03 | 1.04 | 1.02 | 0.971
0.00457 µM | 1.1 | 1.18 | 1.04 | 1.02 | 1.01 | 0.963
0.01372 µM | 1.1 | 1.15 | 1.03 | 1.03 | 1.02 | 0.921
0.04115 µM | 1.07 | 1.15 | 0.988 | 1.04 | 1.01 | 0.918
0.1235 µM | 1.07 | 1.1 | 1 | 1.048 | 0.997 | 0.817
0.3704 µM | 1.04 | 1.13 | 0.963 | 1.04 | 0.925 | 0.651
1.111 µM | 1.01 | 1.12 | 0.9736 | 1.04 | 0.863 | 0.498
3.333 µM | 0.976 | 1.09 | 0.893 | 0.992 | 0.746 | 0.417
10 µM | 0.991 | 1.07 | 0.852 | 0.925 | 0.763 | 0.402
